The series is described as follows: Cure of prepolymer injected into 0.1 N NaHCO3 aqueous solution simulating a blood environment. The class given is physicochemical. Particulars: cyanoacrylate without iridium, same procedure. Here is the method:
About 0.2 cc of this composition was taken up in a 1 cc syringe through a 21 gage needle and injected into about 150 cc of a 0.1 N NaHCO3 aqueous solution to simulate a blood environment and cure the prepolymer. Upon injection, three small black/gray droplets were formed which immediately fell to the bottom of the container. It took about 15 minutes for the cyanoacrylate to fully cure and to be tack free.

In the case of `C=C(C#N)C(=O)OCCCC` [cyanoacrylate alone, n-butyl cyanoacrylate], the “cure time compared with the iridium composition” value is recorded as “cured in approximately the same time”.

Source of the values: patent publication US6562317B2, “Radioactive embolizing compositions” (Micro Therapeutics, Inc., priority 1997, dated 2003).
